Tested on: neutrophil adhesion to the endothelium
Experiment: CXCL8-induced neutrophil adhesion in the murine cremaster muscle model
Format: in vivo, mouse (C57Bl/6J)
Settings: 108 µg peptide i.v., Figure 8
Description: Mice were anesthetized by intraperitoneal injection of 200 mg/kg ketamine (Bayer Inc. Animal Health) and 10 mg/kg xylazine (Bimeda-MTC). After anesthesia, the right jugular vein was cannulated for maintenance of anesthesia and to permit the delivery of the fluorescence-labeled antibodies. Mice were injected intravenously (via jugular vein) with either saline or CXCL9(74-103) 5 min prior to an intrascrotal injection of 1 or 3 µg CXCL8. The animals were placed on a water-heated operating table to maintain body temperature at ~37°C. The depth of anesthesia was controlled by regularly monitoring peripheral reflexes. The cremaster muscle was prepared as previously described ([50]). […] Single unbranched cremasteric venules with a diameter of ~25–40 μm were selected and their blood flow was recorded during a 5 min period. […] A 512 × 512 pixel back-thinned EMCCD camera (C9100-13, Hamamatsu, Bridgewater, NJ, USA) was used for fluorescence detection. […] Images captured using the spinning disk were processed and analyzed in Volocity 4.20. Periods of 5 min/field of view were recorded at 45, 60, and 90 min after CXCL8 administration. A neutrophil was considered to be adherent if it remained stationary for at least 30 s, and total neutrophil adhesion was quantified as the number of adherent cells within a 100-µm length of venule. […]

Substance: 74KKKQKNGKKHQKKKVLKVRKSQRSRQKKTT103 [CXCL9(74-103), COOH-terminal peptide of CXCL9]
- adherence of neutrophils to the endothelium (1 µg CXCL8 intrascrotal): reduced the adherence of neutrophils to the endothelium significantly
- adherence of neutrophils to the endothelium (3 µg CXCL8 intrascrotal): reduced the adherence of neutrophils to the endothelium significantly
